# From patent publication US12391648B2, “Pyridyloxy thioester derivative and preparation method therefor, herbicidal composition, and application” (Qingdao Kingagroot Chemical Compound Co., Ltd., priority 2018, dated 2025)
# Columns and labels:
# Assay in all cases: Post-emergence test experiment (Table 3, 1000 g/ha)
# Format in all cases: in vivo
# Details in all cases: post-emergence spray, after 3 weeks, fresh weight inhibition
# Setaria viridis = test system: Setaria viridis
# Outline: (§1)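 Weed seeds sown in soil-filled pots in greenhouse, sprayed at 2-3 leaf stage (2 weeks after sowing) with compound in acetone/tween-80 plus methyl oleate emulsible concentrate (1.5 L/ha) diluted in water. Fresh-weight growth inhibition scored after 3 weeks on 0-5 scale (5: >85%, 0: <5%).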
# Monochoria vaginalis = test system: Monochoria vaginalis
# Outline: as §1
# Leptochloa chinensis = test system: Leptochloa chinensis
# Outline: as §1
# Galium spurium = test system: Galium spurium
# Outline: as §1
# Abutilon theophrasti = test system: Abutilon theophrasti
# Outline: as §1
# Digitaria sanguinalis = test system: Digitaria sanguinalis
# Outline: as §1
SMILES,Activity level (growth inhibition rate) Setaria viridis (Setaria viridis),Activity level (growth inhibition rate) Monochoria Vaginalis (Monochoria vaginalis),Activity level (growth inhibition rate) Leptochloa chinensis (Leptochloa chinensis),Activity level (growth inhibition rate) Galium spurium (Galium spurium),Activity level (growth inhibition rate) Abutilon theophrasti (Abutilon theophrasti),Activity level (growth inhibition rate) Digitaria sanguinalis (Digitaria sanguinalis)
CC(Oc1nc(F)c(Cl)c(N)c1Cl)C(=O)SC1CCCC1 (stereo not drawn) [Compound 125],5 (Level 5: the growth inhibition rate is greater than 85%),5 (Level 5: the growth inhibition rate is greater than 85%),5 (Level 5: the growth inhibition rate is greater than 85%),5 (Level 5: the growth inhibition rate is greater than 85%),5 (Level 5: the growth inhibition rate is greater than 85%),5 (Level 5: the growth inhibition rate is greater than 85%)
CNc1c(Cl)c(F)nc(OC(C)C(=O)SC)c1Cl (stereo not drawn) [Compound 127],5 (Level 5: the growth inhibition rate is greater than 85%),5 (Level 5: the growth inhibition rate is greater than 85%),5 (Level 5: the growth inhibition rate is greater than 85%),5 (Level 5: the growth inhibition rate is greater than 85%),5 (Level 5: the growth inhibition rate is greater than 85%),5 (Level 5: the growth inhibition rate is greater than 85%)
CCNc1c(Cl)c(F)nc(OC(C)C(=O)SC)c1Cl (stereo not drawn) [Compound 128],5 (Level 5: the growth inhibition rate is greater than 85%),5 (Level 5: the growth inhibition rate is greater than 85%),5 (Level 5: the growth inhibition rate is greater than 85%),5 (Level 5: the growth inhibition rate is greater than 85%),5 (Level 5: the growth inhibition rate is greater than 85%),5 (Level 5: the growth inhibition rate is greater than 85%)
CSC(=O)C(C)Oc1nc(F)c(Cl)c(NC(C)=O)c1Cl (stereo not drawn) [Compound 129],5 (Level 5: the growth inhibition rate is greater than 85%),5 (Level 5: the growth inhibition rate is greater than 85%),5 (Level 5: the growth inhibition rate is greater than 85%),5 (Level 5: the growth inhibition rate is greater than 85%),5 (Level 5: the growth inhibition rate is greater than 85%),5 (Level 5: the growth inhibition rate is greater than 85%)
CSC(=O)C(C)Oc1nc(F)c(Cl)c(NC(=O)c2ccccc2)c1Cl (stereo not drawn) [Compound 131],5 (Level 5: the growth inhibition rate is greater than 85%),5 (Level 5: the growth inhibition rate is greater than 85%),5 (Level 5: the growth inhibition rate is greater than 85%),5 (Level 5: the growth inhibition rate is greater than 85%),5 (Level 5: the growth inhibition rate is greater than 85%),5 (Level 5: the growth inhibition rate is greater than 85%)
CSC(=O)C(C)Oc1nc(F)c(Cl)c(NCc2ccccc2)c1Cl (stereo not drawn) [Compound 132],5 (Level 5: the growth inhibition rate is greater than 85%),5 (Level 5: the growth inhibition rate is greater than 85%),5 (Level 5: the growth inhibition rate is greater than 85%),5 (Level 5: the growth inhibition rate is greater than 85%),5 (Level 5: the growth inhibition rate is greater than 85%),5 (Level 5: the growth inhibition rate is greater than 85%)
CC(C)CSC(=O)C(C)Oc1nc(F)c(Cl)c(N)c1Cl (stereo not drawn) [Compound 133],5 (Level 5: the growth inhibition rate is greater than 85%),5 (Level 5: the growth inhibition rate is greater than 85%),5 (Level 5: the growth inhibition rate is greater than 85%),5 (Level 5: the growth inhibition rate is greater than 85%),5 (Level 5: the growth inhibition rate is greater than 85%),5 (Level 5: the growth inhibition rate is greater than 85%)
CCCCCCC(C)SC(=O)C(C)Oc1nc(F)c(Cl)c(N)c1Cl (stereo not drawn) [Compound 135],5 (Level 5: the growth inhibition rate is greater than 85%),5 (Level 5: the growth inhibition rate is greater than 85%),5 (Level 5: the growth inhibition rate is greater than 85%),5 (Level 5: the growth inhibition rate is greater than 85%),5 (Level 5: the growth inhibition rate is greater than 85%),5 (Level 5: the growth inhibition rate is greater than 85%)
CC(C)CCCCCSC(=O)C(C)Oc1nc(F)c(Cl)c(N)c1Cl (stereo not drawn) [Compound 136],5 (Level 5: the growth inhibition rate is greater than 85%),5 (Level 5: the growth inhibition rate is greater than 85%),5 (Level 5: the growth inhibition rate is greater than 85%),5 (Level 5: the growth inhibition rate is greater than 85%),5 (Level 5: the growth inhibition rate is greater than 85%),5 (Level 5: the growth inhibition rate is greater than 85%)
CCCCCCCSC(=O)C(C)Oc1nc(F)c(Cl)c(N)c1Cl (stereo not drawn) [Compound 139],5 (Level 5: the growth inhibition rate is greater than 85%),5 (Level 5: the growth inhibition rate is greater than 85%),5 (Level 5: the growth inhibition rate is greater than 85%),5 (Level 5: the growth inhibition rate is greater than 85%),5 (Level 5: the growth inhibition rate is greater than 85%),5 (Level 5: the growth inhibition rate is greater than 85%)
CCCCCCCCCSC(=O)C(C)Oc1nc(F)c(Cl)c(N)c1Cl (stereo not drawn) [Compound 140],5 (Level 5: the growth inhibition rate is greater than 85%),5 (Level 5: the growth inhibition rate is greater than 85%),5 (Level 5: the growth inhibition rate is greater than 85%),5 (Level 5: the growth inhibition rate is greater than 85%),5 (Level 5: the growth inhibition rate is greater than 85%),5 (Level 5: the growth inhibition rate is greater than 85%)
CCCCCCCCCCSC(=O)C(C)Oc1nc(F)c(Cl)c(N)c1Cl (stereo not drawn) [Compound 141],5 (Level 5: the growth inhibition rate is greater than 85%),5 (Level 5: the growth inhibition rate is greater than 85%),5 (Level 5: the growth inhibition rate is greater than 85%),5 (Level 5: the growth inhibition rate is greater than 85%),5 (Level 5: the growth inhibition rate is greater than 85%),5 (Level 5: the growth inhibition rate is greater than 85%)
CCCCCCCCCCCSC(=O)C(C)Oc1nc(F)c(Cl)c(N)c1Cl (stereo not drawn) [Compound 142],5 (Level 5: the growth inhibition rate is greater than 85%),5 (Level 5: the growth inhibition rate is greater than 85%),5 (Level 5: the growth inhibition rate is greater than 85%),5 (Level 5: the growth inhibition rate is greater than 85%),5 (Level 5: the growth inhibition rate is greater than 85%),5 (Level 5: the growth inhibition rate is greater than 85%)
CCCCCCCCCCCCSC(=O)C(C)Oc1nc(F)c(Cl)c(N)c1Cl (stereo not drawn) [Compound 143],5 (Level 5: the growth inhibition rate is greater than 85%),5 (Level 5: the growth inhibition rate is greater than 85%),5 (Level 5: the growth inhibition rate is greater than 85%),5 (Level 5: the growth inhibition rate is greater than 85%),5 (Level 5: the growth inhibition rate is greater than 85%),5 (Level 5: the growth inhibition rate is greater than 85%)
